Experiments:
[1] = tested on: KLF15 promoter mutated at the GR binding site; assay: GR-mutant KLF15 reporter assay; assay type: cell-based, human
KLF15 promoter [2] = assay: KLF15 reporter human podocyte assay (HTS, dose-response, primary screening); assay type: cell-based; conditions: for EC50: dose-response curve, human podocytes, luciferase/renilla
Method: A stable reporter assay directed at KLF15 promoter region (4.3 kb region) was generated in human podocytes, a fragment of human KLF15 promoter upstream of the start codon, by amplifying and subcloning it into the firefly luciferase reporter plasmid (co-transfection with renilla to serve as internal controls). KLF15 promoter activity is measured as a ratio of luciferase to renilla activity. Using this reporter cell line, a cell-based HTS assay was developed using recently reported cell-seeding methodology specific to cultured podocytes (16).

KLF15 = KLF15 activity in ADR-treated cultured human podocytes; assay type: cell-based; conditions: nonpermissive conditions 37° C., vs DMSO
human podocytes [3] = assay: Podocyte survival (Renilla, cell viability) after LPS treatment; assay type: cell-based; conditions: LPS-treated human podocytes
Method: (§1) FIG. 10A-D show representative data illustrating the dose-response curve and EC50 (FIG. 10A), KLF15 reporter activity (FIG. 10B), and Renilla activity (cell viability) (FIG. 10C) in LPS-treated HP, and the therapeutic efficacy in abrogating albuminuria (biomarker of kidney disease) in LPS-treated mice (FIG. 10D).
(§2) After the synthesis of these novel analogues, a primary screening assay was conducted.

human podocytes [4] = assay: Cell viability (renilla activity, MTT assay) in ADR-treated cultured human podocytes; assay type: cell-based; conditions: vs K-9, K-15, DEX, DMSO
KLF15 reporter = KLF15 reporter activity in LPS-treated human podocytes (podocyte stress model); assay type: cell-based
Method: as §1, §2

KLF15 promoter [5] = assay: KLF15 promoter activity in human podocytes, KLF15 agonist combined with dexamethasone; assay type: cell-based; conditions: K-7 combined with DEX, dose-response curves
human podocytes [6] = assay: KLF15 and synaptopodin expression and actin stress fibers in LPS-treated human podocytes; assay type: cell-based; conditions: LPS conditions, vs DMSO-treated podocytes
LPS-treated mice = assay: LPS-induced albuminuria murine model; assay type: in vivo; conditions: vs DMSO
Method: Referring to FIG. 10D, C57BL/6 mice were treated with lipopolysaccharide (LPS) at dose of 10 μg/g in two divided doses 24 hours apart intraperitoneally to induce podocyte injury and albuminuria.

[7] = tested on: Db/db mice on the FVB/N background; assay: db/db murine model of progressive diabetic kidney disease; assay type: in vivo; conditions: subcutaneous minipump, 0.85 μg/day for 14 days
Text: Db/db mice on the FVB/N background were utilized as a murine model of progressive diabetic kidney disease (DKD), where there is significant podocyte injury and glomerulosclerosis.

**Q.** How did the “KLF15 reporter activity with KLF15 promoter mutated at the GR binding site” value [1] turn out when Nc1ccccc1-n1nc2ccc3ccccc3c2n1 [Compound K-9] was run?
**A.** induce KLF15 reporter activity independent of GR signaling

**Q.** What about the EC50 (KLF15 promoter [2]) of the same compound?
**A.** ~76.2 nM

**Q.** And the KLF15 activity (KLF15)?
**A.** restored KLF15 activity

**Q.** CSc1ccc(NC(=O)Nc2cc(C)ccn2)cc1 [Compound K-7] was tested. Which “podocyte survival after LPS treatment” value (human podocytes [3]) did it give?
**A.** improved

**Q.** What about the “cell viability (renilla activity and MTT assay)” value (human podocytes [4]) of the same compound?
**A.** significantly improved

**Q.** And the “KLF15 reporter activity after LPS treatment” value (KLF15 reporter)?
**A.** improved KLF15 reporter activity

**Q.** And the “DEX dose required to induce KLF15 reporter activity” value (KLF15 promoter [5])?
**A.** reduced the DEX dose required to induce KLF15 reporter activity

**Q.** What about the “KLF15 reporter activity with KLF15 promoter mutated at the GR binding site” value [1] of the same compound?
**A.** induce KLF15 reporter activity independent of GR signaling

**Q.** And the KLF15 expression (human podocytes [6])?
**A.** restored

**Q.** What about the “actin stress fiber formation” value (human podocytes [6]) of the same compound?
**A.** restored

**Q.** What about the synaptopodin expression (human podocytes [6]) of the same compound?
**A.** restored

**Q.** And the albuminuria (LPS-treated mice; 5 mg/kg every 12 hours, LPS-proteinuric mice)?
**A.** significant improvement in albuminuria

**Q.** And the albuminuria (LPS-treated mice; C57BL/6 mice, LPS 10 μg/g, subcutaneous minipump 3.5 μg/day for 48 hours)?
**A.** significantly reduced albuminuria

**Q.** What about the “genes involved in IL-17R and NF-κB signaling, chemokine/inflammatory signaling and fibrosis pathways (RNA-seq enrichment)” value (IL-17R signaling; K-7 vs DMSO in LPS-treated podocytes) of the same compound?
**A.** significant decrease

**Q.** What about the “transcripts downstream of IL-17R signaling (CSF2, CSF3, CXCL2, CXCL3, CCL2, IL1β)” value (IL-17R signaling; cultured human podocytes, LPS treatment) of the same compound?
**A.** suppressed

**Q.** What about the podocyte effacement ([7]; PAS staining and TEM) of the same compound?
**A.** attenuated podocyte effacement

**Q.** And the “glomerular basement membrane (GBM) thickness” value ([7]; quantified with ImageJ)?
**A.** reduced

**Q.** What about the glomerular volume ([7]; quantified with ImageJ) of the same compound?
**A.** reduced glomerular volume

**Q.** What about the “maximal KLF15 reporter activity” value (KLF15 promoter [2]; dose escalation, at similar concentrations to DEX) of the same compound?
**A.** higher maximal KLF15 reporter activity

**Q.** And the EC50 (KLF15 promoter [2])?
**A.** ~11.9 nM

**Q.** What about the KLF15 activity (KLF15) of the same compound?
**A.** restored KLF15 activity

**Q.** Which results are given for O=C(Nc1ccc2ccccc2c1)c1ccc(Cl)cc1Cl [Compound K-15]?
**A.** KLF15 reporter activity with KLF15 promoter mutated at the GR binding site [1]: induce KLF15 reporter activity independent of GR signaling; EC50 (KLF15 promoter [2]): ~10.9 nM; KLF15 activity (KLF15): restored KLF15 activity

Reference: patent publication US12269803B2, “Krüppel-like factor 15 (KLF15) small molecule agonists in kidney disease” (United States Government as represented by the Department …, priority 2020, dated 2025)
